We go through two compounds from patent US20040209799A1, “JAK/STAT pathway inhibitors and the uses thereof” (priority 2000, published 2004).

Assay [1] has as its system IL-1α-induced aggrecanase activity in bovine chondrocytes. Put plainly: IL-1α-induced 35S-labeled proteoglycan release (aggrecanase activity) in bovine chondrocytes. As to conditions: Bos taurus, Chondrocyte, 1 ng/ml rhIL-1α, primary bovine articular chondrocytes. The assay is classed as cell-based. The procedure: Primary bovine articular chondrocytes were isolated from the dissected articular cartilage of calf stifle joints using a thirty minute (37° C.) 1 mg/ml hyaluronidase (Boehringer Mannheim, Indianapolis, Ind.) treatment, followed by a thirty minute (37° C.) 2 mg/ml collagenase P (Boehringer Mannheim, Indianapolis, Ind.) and 2.5 mg/ml trypsin (GIBCO/BRL, Gaithersburg, Md.) treatment. Enzyme solutions were prepared in serum-free 1:1 Delbecco's modified essential medium/Ham's F-12 (DMEM/F12), and filter sterilized with a 0.22 μm Millex®-GV filter (Millipore S. A., Molsheim, France). A third, overnight digestion (0.5 mg/ml collagenase P at 37° C.) was performed in a Bellco stir flask.
Bovine chondrocytes were recovered by addition of an equal volume of DMEM/F12 supplemented with 10% fetal bovine serum (FBS) to neutralize enzymes, filtered through a 70 μm nylon Falcon® Cell Strainer (Beckton Dickinson, Franklin Lakes, N.J.), and centrifuged at 1000×g for 10 min at room temperature. […]
On day 28, the 0.5 ml media was removed and placed in a scintillation minivial. 4 ml of scintillation fluid was added and radioactivity in the media was quantified by scintillation counting. The cell layer was rinsed in PBS and harvested with 0.5 ml of 1× trypsin-EDTA, and quantified by scintillation counting as above. […]
Data were determined and expressed as follows: […]

In another assay the test system is NF-κB (p65) mRNA. Put plainly: northern blot, IL-1β-induced mRNA in human articular chondrocytes: NF-κB. As to conditions: 5 μM, 2 ng/ml rhIL-1β, 24 hours, free base or trifluoroacetic acid salt form. Format: cell-based. Here is the method: (§1) Frozen human articular chondrocyte cell strain HC30-0198 (described in Example 1) was thawed, and cultured in monolayer in T150 tissue culture flasks (Corning Costar, Cambridge, Mass.) as described above to 1-5 days post-confluence. Test cultures were rinsed in PBS, and preincubated for 2 hours with 10 ml of serum-free DMEM containing 5 μM DBH (synthetic), in its free base or trifluoroacetic acid salt form. An additional 10 ml of serum-free DMEM containing 5 μM DBH, 4 ng/ml recombinant human interleukin-1β (rhIL-1β; final concentration of 2 ng/ml) (R&D Systems, Minneapolis, Minn.), and 2% antibiotic solution (final concentration of 1%), were then added for 24 hours.
(§2) Two control cultures were run in parallel: one without DBH (rhIL-1β alone), and another without DBH or rhIL-1β.
(§3) Total RNA was fixed to the membrane using a Stratalinker® 1800 UV Crosslinker (Stratagene, La Jolla, Calif.). […]
(§4) The blot was successively washed two times in 2×SSC/0.05% SDS (15 min/wash at room temperature), and two times in 0.1×SSC/0.1% SDS (30 minutes/wash at 65° C.). The blot was allowed to air dry, and the radioactive signal was visualized and quantified using a Fujifilm, BAS-1500 phosphorimager (Fuji, Stamford, Conn.). […]

The subject of assay [2] is collagenase 1 (MMP1) mRNA. Put plainly: northern blot, IL-1β-induced mRNA in human articular chondrocytes: collagenase 1. The assay is classed as cell-based. As to conditions: 5 μM, 2 ng/ml rhIL-1β, 24 hours, free base or trifluoroacetic acid salt form. Here is the method: as §1, §2, §3, §4
Assay [3] has as its system stromelysin-1 (MMP3) mRNA. As to the kind of experiment: northern blot, IL-1β-induced mRNA in human articular chondrocytes: stromelysin-1. The assay is classed as cell-based. To be noted: 5 μM, 2 ng/ml rhIL-1β, 24 hours, free base or trifluoroacetic acid salt form. The procedure: as §1, §2, §3, §4
The test system of assay [4] is chondrocytes in culture and explants of articular cartilage. As to conditions: cited from earlier work.

The compound `NC1=NC(=O)C(=C2CCNC(=O)c3[nH]ccc32)N1` [DBH-2FB] yielded an inhibition at 5 µM in assay [1] of 100%.

For the compound `NC1=NC(=O)C(=C2CCNC(=O)c3[nH]ccc32)N1` [DBH, 4-(2-amino-4-oxo-2-imidazolin-5-ylidene)-4,5,6,7-tetrahydropyrrolo(2,3-c) azepine-8-one], the “inhibition of IL-1β-induced upregulation of NF-κB (p65) mRNA” value in the assay with NF-κB (p65) mRNA is on record as “inhibit to various degrees”. Moreover, the “inhibition of IL-1β-induced upregulation of collagenase 1 (MMP1) mRNA” value in assay [2] is “inhibit to various degrees”. Also, in assay [3], the “inhibition of IL-1β-induced upregulation of stromelysin (MMP3) mRNA” value is “inhibit to various degrees”. In addition, the “inhibition of IL-1 induced degradation of glycosaminoglycan and extracellular matrix” value in assay [4] is “inhibit”.

What is called inhibition is the change of the read-out against control, counted positive when it falls.
